From article PMC3465485 (Antiviral research, 2012)
“Also recorded” adds a separate entry of the source. Like-named read-outs stand apart in the source and are kept apart here.

Key:
[1] = test system: influenza A/MS-H275Y virus; set-up: species or system BALB/c mice; conditions: mouse, in vivo
[2] = test system: A/Hong Kong/2369/2009 (H1N1) H275Y (A/HK-H275Y) virus
[3] = test system: Influenza A/Mississippi/03/2001 (H1N1) H275Y (A/MS-H275Y) virus
[4] = test system: influenza A/HK-H275Y virus neuraminidase; conditions: NA-Star assay, ref Nguyen et al., 2010a; cited from earlier work
[5] = biological target: A/MS-H275Y neuraminidase (Influenza A virus (A/Mississippi/03/2001(H1N1)), UniProt C7FPR5, H275Y); format: biochemical
[6] = biological target: A/HK-H275Y neuraminidase (Influenza A virus (A/Hong Kong/2369/2009(H1N1)), UniProt C6KQ69); assay: biochemical
[7] = test system: influenza A/WSN/33 (H1N1) H275Y virus; conditions: A/WSN/33 (H1N1) H275Y in mice, up to 10 mg/kg/day; ref Baz et al. (2009); cited from earlier work
[8] = test system: influenza A/HK-H275Y virus; set-up: species or system BALB/c mice; conditions: mouse, in vivo
[9] = read-out: EC50 (50% virus-inhibitory concentration)

Molecule	survival effect (in words) [1]	EC50 [2] [µM]	antiviral activity in cell culture (in words) [2]	EC50 [3, 9] [µM]	IC50 [4] [µM]	sensitivity of the viral neuraminidases (in words) [5]	antiviral activity in cell culture (in words) [3]	other results
NC12CC3CC(CC(C3)C1)C2 [Amantadine]	No significant effect	> 100	not active	0.3 ± 0.05				survival effect (in words) ([1]; po, 3 mg/kg/day): no effect; protection from death ([1]; po, 30 mg/kg/day): 60%; protection from death ([1]; po, 100 mg/kg/day): 100%; protective activity ([1]; po, 100 mg/kg/day): 100%
CCC(CC)O[C@@H]1C=C(C(=O)O)C[C@H](N)[C@H]1NC(C)=O [Oseltamivir Carboxylate, Oseltamivir carboxylate]		> 100		> 100	78	resistant		IC50 ([6]; IC50): > 0.1 µM
CCOC(=O)C1=C[C@@H](OC(CC)CC)[C@H](NC(C)=O)[C@@H](N)C1 [Oseltamivir, Oseltamivir phosphate]	not active		resistant				resistant	protection [1]: up to 60%; survival effect (in words) ([1]; po): ineffective; benefit (in words) ([1]; po, 25 mg/kg/day): no benefit; survival (protection from death) ([1]; po, 100 mg/kg/day): 30%; survival (protection from death) ([1]; po, 300 mg/kg/day): 60%; efficacy in treating the infection (in words) [7]: ineffective; mortality rate [7]: 75%; body weight change (in words) [8]: did not fall as rapidly as in the lower dosage and placebo groups; day of infection after which body weights began to increase [8]: > 10 days; survival effect (in words) [8]: not significantly effective; benefit (in words) ([8]; po, 25 mg/kg/day): no benefit; survival (protection from death) ([8]; po, 100 mg/kg/day): 50%; survival (protection from death) ([8]; po, 300 mg/kg/day): 70%
NC(=O)c1ncn([C@@H]2O[C@H](CO)[C@@H](O)[C@H]2O)n1 [Ribavirin]	not effective	33 ± 13		25 ± 4.6				lung virus titer versus placebo (in words) ([8]; po): significantly reduced virus titers; also recorded: not significantly lower than placebo; body weight change (in words) ([8]; po, 75 mg/kg/day): Weight decline was least severe; day of infection after which weight gain started ([8]; po, 75 mg/kg/day): > 8 days; survival effect (in words) ([8]; po, 75 mg/kg/day): fully protective
CC(N)C12CC3CC(CC(C3)C1)C2 (stereo not shown) [Rimantadine]	no significant effect	> 22	not active	0.01 ± 0.003				SI (CC50/EC50) [2]: 0; SI (CC50/EC50) [3]: 2200
CC(=O)N[C@H]1[C@H]([C@H](O)[C@H](O)CO)OC(C(=O)O)=C[C@@H]1N=C(N)N [Zanamivir]	ineffective; also recorded: delayed the time to death significantly but did little to prevent mortality	0.36 ± 0.58	highly sensitive	0.24 ± 0.08	0.43	sensitive	highly sensitive	IC50 ([6]; IC50): 0.0009 ± 0.0002 µM
Peramivir		7.9 ± 3	decreased sensitivity	8.1 ± 5.2	9.2	resistant	decreased sensitivity	IC50 [5]: 0.038 ± 0.001 µM; SI (CC50/EC50) [2]: >12; SI (CC50/EC50) [3]: >12; EC50 ([3]; read-out: inhibitory concentration against the H275Y viruses in cell culture): ~8 µM; IC50 [6]: 0.029 ± 0.0023 µM
